According to ChEMBL document CHEMBL1201862, “PubChem BioAssay data set” (2004):
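Cells were grown in 96-well plates and exposed to each compound for 48 hours at five concentrations; endpoints were interpolated linearly between bracketing concentrations, or set to the highest concentration if not reached. GI50 = concentration required for 50% inhibition of growth.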 The source made the active and inactive calls. No stated cut-off is given here; in the data, active = GI50 up to about 1.1 µM and inactive = higher.

Tests used:
Assay in all cases: DTP human tumour cell line panel, 48 h
NCI-H23 = tested on: NCI-H23
UO-31 = tested on: UO-31
SNB-19 = tested on: SNB-19
UACC-257 = tested on: UACC-257
EKVX = tested on: EKVX
NCI-H226 = tested on: NCI-H226
TK-10 = tested on: TK-10
HOP-62 = tested on: HOP-62
SW-620 = tested on: SW-620
OVCAR-4 = tested on: OVCAR-4
HOP-92 = tested on: HOP-92
OVCAR-5 = tested on: OVCAR-5
OVCAR-8 = tested on: OVCAR-8
SF-539 = tested on: SF-539
SK-MEL-28 = tested on: SK-MEL-28
U-251 = tested on: U-251
ACHN = tested on: ACHN
A549 = tested on: A549
K562 = tested on: K562
Malme-3M = tested on: Malme-3M

Measured: GI50

CC(=O)/C(=C/NC(=S)Nc1ccc(Cl)c(Cl)c1)C(=O)Nc1ccccc1C
inactive: NCI-H23 23.6 µM | UO-31 22.3 µM | SNB-19 26.8 µM | UACC-257 31.7 µM | EKVX 21.5 µM | NCI-H226 13.8 µM | TK-10 43.8 µM | HOP-62 33.4 µM | SW-620 44.1 µM | OVCAR-4 18.6 µM | HOP-92 22 µM | OVCAR-5 32 µM | OVCAR-8 18.9 µM | SF-539 14.5 µM | SK-MEL-28 44.7 µM | U-251 33 µM | ACHN 32.6 µM | A549 34.1 µM

c1ccc(SC(Sc2ccccc2)c2ccc3c(c2)OCO3)cc1
inactive: NCI-H23 > 100 µM | UO-31 > 100 µM | SNB-19 > 100 µM | UACC-257 > 100 µM | EKVX 37.2 µM | NCI-H226 23.6 µM | TK-10 > 100 µM | HOP-62 > 100 µM | SW-620 > 100 µM | OVCAR-4 > 100 µM | HOP-92 16.3 µM | OVCAR-5 > 100 µM | K562 > 100 µM | Malme-3M > 100 µM | OVCAR-8 > 100 µM | SK-MEL-28 > 100 µM | U-251 > 100 µM | ACHN > 100 µM | A549 > 100 µM

O=S(=O)(N/N=C1\CC2CCC1C2)c1ccccc1 (configuration not stated)
inactive: NCI-H23 > 100 µM | UO-31 > 100 µM | SNB-19 > 100 µM | UACC-257 > 100 µM | EKVX > 100 µM | NCI-H226 > 100 µM | TK-10 > 100 µM | HOP-62 > 100 µM | SW-620 > 100 µM | OVCAR-4 > 100 µM | HOP-92 > 100 µM | OVCAR-5 > 100 µM | K562 > 100 µM | Malme-3M > 100 µM | OVCAR-8 > 100 µM | SK-MEL-28 > 100 µM | U-251 > 100 µM | ACHN > 100 µM | A549 > 100 µM

CC(NO)/C(=N/O)c1ccco1 (configuration not stated)
inactive: NCI-H23 > 10 µM | UO-31 > 10 µM | SNB-19 > 10 µM | UACC-257 > 10 µM | EKVX > 10 µM | NCI-H226 > 10 µM | TK-10 > 10 µM | HOP-62 > 10 µM | SW-620 > 10 µM | OVCAR-4 > 10 µM | HOP-92 > 10 µM | OVCAR-5 > 10 µM | K562 > 10 µM | Malme-3M > 10 µM | OVCAR-8 > 10 µM | U-251 > 10 µM | ACHN > 10 µM | A549 > 10 µM

O=C1/C(=C\c2cccc(Oc3ccccc3)c2)SC(c2ccccc2)N1c1cc(Cl)ccc1Cl (configuration not stated)
inactive: NCI-H23 33.4 µM | UO-31 37.2 µM | SNB-19 43.4 µM | UACC-257 32.7 µM | EKVX 38.1 µM | TK-10 47 µM | HOP-62 56.5 µM | SW-620 19 µM | OVCAR-4 51.2 µM | HOP-92 17.7 µM | OVCAR-5 59 µM | K562 21.2 µM | Malme-3M 28.2 µM | OVCAR-8 21.3 µM | SF-539 24.3 µM | SK-MEL-28 37.1 µM | U-251 33.4 µM | ACHN 43.7 µM | A549 51.5 µM

CC1=C(C(=O)O)N2C(=O)[C@@H](NC(=O)C(c3ccc(O)cc3)N3CSC(=S)N(C(C)C)C3)C2SC1 (some centres not stated)
inactive: NCI-H23 > 100 µM | UO-31 > 100 µM | SNB-19 > 100 µM | UACC-257 > 100 µM | EKVX > 100 µM | TK-10 > 100 µM | HOP-62 > 100 µM | OVCAR-4 > 100 µM | HOP-92 > 100 µM | OVCAR-5 > 100 µM | K562 57.8 µM | Malme-3M > 100 µM | OVCAR-8 > 100 µM | SF-539 > 100 µM | SK-MEL-28 > 100 µM | U-251 > 100 µM | ACHN > 100 µM | A549 > 100 µM

O=C(CCc1cccc(O)c1)NCCCNC(=O)CCc1cccc(O)c1
inactive: NCI-H23 > 100 µM | UO-31 > 100 µM | SNB-19 > 100 µM | UACC-257 > 100 µM | EKVX > 100 µM | HOP-62 > 100 µM | SW-620 > 100 µM | OVCAR-4 > 100 µM | HOP-92 50.9 µM | OVCAR-5 > 100 µM | K562 > 100 µM | Malme-3M > 100 µM | OVCAR-8 > 100 µM | SF-539 > 100 µM | SK-MEL-28 > 100 µM | U-251 > 100 µM | ACHN > 100 µM | A549 > 100 µM

Cc1ccc2c(c1)C(=O)C1(C2)Cc2ccc(C)cc2C1=O
inactive: NCI-H23 > 100 µM | UO-31 > 100 µM | SNB-19 > 100 µM | UACC-257 > 100 µM | EKVX > 100 µM | TK-10 > 100 µM | HOP-62 > 100 µM | SW-620 > 100 µM | OVCAR-4 > 100 µM | HOP-92 > 100 µM | OVCAR-5 > 100 µM | K562 > 100 µM | Malme-3M > 100 µM | OVCAR-8 > 100 µM | SF-539 > 100 µM | U-251 71.8 µM | ACHN > 100 µM | A549 > 100 µM
